Reference: PubChem BioAssay (NCI)
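Briefly, cells in 96-well plates were exposed to five compound concentrations for 48 h, and endpoints were estimated by linear interpolation. GI50 is the concentration that inhibits growth by half. TGI is the concentration that stops growth completely.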

Legend:
Assay in all cases: NCI-60 cell line screen, 48 h
[1] = system: NCI-H460 lung
[2] = system: NCI-H522 lung
[3] = system: OVCAR-3 ovarian
[4] = system: OVCAR-4 ovarian
[5] = system: OVCAR-5 ovarian
[6] = system: OVCAR-8 ovarian
[7] = system: PC-3 prostate
[8] = system: RPMI-8226 leukemia
[9] = system: RXF 393 renal
[10] = system: SF-268 CNS
[11] = system: SF-295 CNS
[12] = system: SF-539 CNS
[13] = system: SK-MEL-2 melanoma
[14] = system: SK-MEL-28 melanoma
[15] = system: SK-MEL-5 melanoma
[16] = system: SK-OV-3 ovarian
[17] = system: SN12C renal
[18] = system: SNB-19 CNS
[19] = system: SNB-75 CNS
[20] = system: SR leukemia
[21] = system: SW-620 colon
[22] = system: T-47D breast
[23] = system: TK-10 renal
[24] = system: U251 CNS
[25] = system: UACC-257 melanoma
[26] = system: UACC-62 melanoma
[27] = system: UO-31 renal

With `COC(=O)C[C@](O)(CCC(C)C)C(=O)O[C@@H]1C(OC)=C[C@]23CCCN2CCc2cc4c(cc2[C@H]13)OCO4` the GI50 [1] was 21.2 nM, the TGI [1] was 82 nM and the GI50 [2] was 21.2 nM. It also gave a TGI [2] of 65.3 nM, a GI50 [3] of 39 nM and a TGI [3] of 306 nM. The GI50 [4] was 39.5 nM, the TGI [4] was 354 nM and the GI50 [5] was 170 nM. It also gave a TGI [5] of 596 nM, a GI50 [6] of 130 nM and a TGI [6] of 787 nM. For the same compound, the GI50 [7] was 52.1 nM, the TGI [7] was 756 nM and the GI50 [8] was 33.7 nM. The TGI [8] was 132 nM, the GI50 [9] was 39.9 nM and the TGI [9] was 285 nM. It also gave a GI50 [10] of 192 nM, a TGI [10] of 709 nM and a GI50 [11] of 135 nM. The TGI [11] was 662 nM, the GI50 [12] was 23 nM and the TGI [12] was 58 nM. For the same compound, the GI50 [13] was 216 nM, the TGI [13] was 642 nM and the GI50 [14] was 70.6 nM. The TGI [14] was 352 nM, the GI50 [15] was 43.1 nM and the TGI [15] was 181 nM. It also gave a GI50 [16] of 159 nM, a TGI [16] of 1620 nM and a GI50 [17] of 259 nM. It also gave a TGI [17] of 1110 nM, a GI50 [18] of 36 nM and a TGI [18] of 305 nM. The GI50 [19] was 156 nM, the TGI [19] was 417 nM and the GI50 [20] was 18.2 nM. It also gave a TGI [20] of 57.2 nM, a GI50 [21] of 57.5 nM and a TGI [21] of 473 nM. It also gave a GI50 [22] of 191 nM, a TGI [22] of 919 nM and a GI50 [23] of 136 nM. For the same compound, the TGI [23] was 1090 nM, the GI50 [24] was 39.2 nM and the TGI [24] was 4020 nM. It also gave a GI50 [25] of 194 nM, a TGI [25] of 810 nM and a GI50 [26] of 144 nM. It also gave a TGI [26] of 603 nM, a GI50 [27] of 49.8 nM and a TGI [27] of 449 nM.
